Laboratory results reported in article PMC6895048, “4,5-Disubstituted 1,2,3-triazoles: Effective Inhibition of Indoleamine 2,3-Dioxygenase 1 Enzyme Regulates T cell Activity and Mitigates Tumor Growth” (Scientific Reports, 2019).

How the values were obtained:
[1] = biological target: T1, TDO enzyme (Homo sapiens, UniProt P48775); experiment: HPLC based TDO inhibition assay; type: biochemical
T1 construct: 6xHis (N); made in house; host or cells: Escherichia coli BL21 (DE3) (pET 28a vector)
Procedure: (§1) HPLC based IDO1, and TDO inhibition assays were performed according to the earlier reported procedure[19],[27]–[30]. The reaction mixture (250 µL) contained KPB (100 mM, pH 6.5 for IDO1 and 50 mM, pH 8.0 for TDO), sodium ascorbate (20 mM), methylene blue (10 µM), catalase (240 nM, from bovine liver, Sigma), L-Trp (150 µM), purified enzyme (40 nM for IDO1 and 25 nM for TDO), DMSO (0.05%, v/v), Triton-X 100 (0.01%, v/v) and inhibitors. The concentration of the compound was varied from 100 µM to 32 nM by serial dilution. The mixture was incubated at 37 °C for 1 hour in the absence and presence of the synthesized compounds. The reaction was then quenched using 50 µL of 30% (w/v) trichloroacetic acid and incubated at 65 °C for additional 15 minutes to allow complete hydrolysis of N-formylkynurenine to kynurenine. After that, the mixture was centrifuged at 10,000 rpm for 10 minutes, and 100 µL of clear solution was transferred to another tube for HPLC analysis. Then, 20 µL of the reaction mixture was then injected through Ascentis® express C18, 2.7 µm HPLC column with a flow rate of 0.5 mL/minute of the mobile phase containing 50% sodium citrate buffer (40 mM, pH 2.25) and 50% methanol (v/v) with 400 µM SDS. The area under the curve at 365 nm chromatogram corresponding to the kynurenine formation was recorded, and % of inhibition was calculated using standard curve prepared with pure kynurenine (from Sigma) under similar experimental conditions.

[2] = biological target: T2, IDO1 (Homo sapiens, UniProt P14902); experiment: Kynurenine assay by HPLC analysis, IDO1; type: biochemical; set-up: made in house; host or cells: Escherichia coli M15 (pQE30 vector with pREP4 plasmid)
T2 sequence (P14902 whole entry): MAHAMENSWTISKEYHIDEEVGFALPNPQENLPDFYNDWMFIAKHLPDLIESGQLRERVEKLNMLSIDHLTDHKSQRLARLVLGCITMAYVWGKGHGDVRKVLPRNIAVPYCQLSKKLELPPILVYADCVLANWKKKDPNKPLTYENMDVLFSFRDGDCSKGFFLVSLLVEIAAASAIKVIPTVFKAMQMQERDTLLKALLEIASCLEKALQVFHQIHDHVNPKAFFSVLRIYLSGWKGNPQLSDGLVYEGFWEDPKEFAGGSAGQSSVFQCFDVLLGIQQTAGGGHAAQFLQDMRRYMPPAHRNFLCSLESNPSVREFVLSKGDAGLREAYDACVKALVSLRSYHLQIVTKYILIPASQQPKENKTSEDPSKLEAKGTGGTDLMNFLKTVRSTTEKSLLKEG
Procedure: as §1

[3] = biological target: T3, purified human IDO1 enzyme (Homo sapiens, UniProt P14902); experiment: IDO1 inhibition assay by the spectrometric method (pDMAB); type: biochemical; conditions: for IC50: purified human IDO1, spectrophotometric, mean of three independent assays, read-out: hIDO1 IC50; for fold stronger IDO1 inhibition than MMG-0358: similar experimental conditions
T3 construct: made in house; host or cells: Escherichia coli M15 (pQE30 vector with pREP4 plasmid)
T3 sequence (P14902 whole entry): as above
Procedure: Both IDO1 and TDO inhibition assays were performed according to the reported procedures[26]–[30],[50],[51]. […] In the assay system, the minimum and maximum amount of DMSO was 0.02% and 2%, respectively. […] The concentration of the inhibitors was varied from 100 µM to 32 nM by serial dilution technique. Then, the reaction was quenched with 100 µL of 30% (w/v) trichloroacetic acid and was incubated for further 15 minutes at 65 °C. After that, 2% (w/v) pDMAB was used to quantify the amount of kynurenine formation. The absorbance of the reaction mixture was recorded by UV-Vis spectrophotometer at 480 nm.

[4] = biological target: T2, IDO1; experiment: Cellular IDO1 activity assay in IFN-γ induced MDA-MB-231 cells; type: cell-based; set-up: induce the expression of the native IDO1 enzyme from its mRNA in the MDA-MB-231 cells; endogenous in cells; host or cells: MDA-MB-231 cells induced with human IFN-γ (50 ng/mL); conditions: IDO1 expression induced by human IFN-γ (50 ng/mL); mean of three
Procedure: The cellular enzyme activity assay was performed according to the reported procedure with minor modifications[19],[27]–[30],[33],[54]. Briefly, MDA-MB-231 breast cancer cells were selected for this assay because of the presence of IDO1 mRNA in this cell line. First, cells were grown in DMEM/F12 complete media overnight. Then different concentration of human interferon-gamma (IFN-γ) (from 5–1000 ng/mL) was added to it and incubated for 48 hours. This treatment is reported to allow over-expression of IDO1 enzyme in MDA-MB-231 cells. […] Sterile cell-culture grade PBS was used to wash the cells by centrifugation technique. Then, the pellet was lysed in 10 mM HEPES buffer by passing through a sterile syringe. The lysate was used for standard IDO1 assay as mentioned earlier. The relative amount of N-formylkynurenine generated in the presence of the different concentration of IFN-γ was used to optimize the required concentration of IFN-γ for the IDO1 inhibition assay. […] Cells stimulated with IFN-γ alone were used as negative control, while cells stimulated with L-Trp without compound served as positive control. The cells were washed with sterile cell culture grade PBS and lysed in 10 mM HEPES buffer by sterile syringe. The lysate was used for standard IDO1 assay, as mentioned earlier, and the extent of IDO1 enzyme inhibition was determined for the selected compounds.

[5] = Serum binding by Trp-fluorescence quenching; type: in vitro ADME, human; conditions: qualitative; compared with compound 4i
Procedure: Tryptophan fluorescence measurements of the human serum were performed in the presence of compounds on a Fluoromax-4 spectrofluorometer at room temperature. For fluorescence measurements, 30 µL of 100% human serum and varying concentrations (0–220 µM) of compounds were incubated in 10 mM PBS buffer, pH 7.4. The solution was excited at 290 nm, and emission spectra were recorded from 300 to 560 nm. The resulting tryptophan emission spectra for each concentration of the compounds were plotted.

[6] = HPLC based IDO1 inhibition assay

T1 sequence (P48775 whole entry): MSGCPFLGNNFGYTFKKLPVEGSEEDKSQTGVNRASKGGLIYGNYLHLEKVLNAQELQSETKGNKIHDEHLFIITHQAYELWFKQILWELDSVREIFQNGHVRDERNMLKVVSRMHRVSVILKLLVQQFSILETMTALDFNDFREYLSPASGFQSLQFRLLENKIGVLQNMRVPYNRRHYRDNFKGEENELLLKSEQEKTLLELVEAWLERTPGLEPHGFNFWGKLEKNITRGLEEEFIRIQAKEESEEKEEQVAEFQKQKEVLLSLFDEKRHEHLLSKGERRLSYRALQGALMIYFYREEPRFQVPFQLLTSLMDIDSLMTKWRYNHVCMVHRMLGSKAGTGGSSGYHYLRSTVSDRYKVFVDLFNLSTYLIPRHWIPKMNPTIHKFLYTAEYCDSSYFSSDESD

O=C(N/C(Cc1ccc(O)cc1)=N\O)c1n[nH]nc1-c1ccc(F)c(F)c1 [Compound 4i]
% Of inhibition for TDO enzyme ([1]; 32 nM): 15% | % Of inhibition for TDO enzyme ([1]; 160 nM): 25% | % Of inhibition for TDO enzyme ([1]; 800 nM): 26% | % Of inhibition for TDO enzyme ([1]; 4 µM): 50% | % Of inhibition for TDO enzyme ([1]; 20 µM): 66% | % Of inhibition for TDO enzyme ([1]; 100 µM): 73% | IC50 [2, 6]: 114 ± 10 nM | % Of inhibition for IDO1 enzyme ([2]; HPLC, 32 nM): 13% | % Of inhibition for IDO1 enzyme ([2]; HPLC, 160 nM): 34% | % Of inhibition for IDO1 enzyme ([2]; HPLC, 800 nM): 52% | % Of inhibition for IDO1 enzyme ([2]; HPLC, 4 µM): 68% | % Of inhibition for IDO1 enzyme ([2]; HPLC, 20 µM): 79% | % Of inhibition for IDO1 enzyme ([2]; HPLC, 100 µM): 84% | IC50 ([2]; kynurenine assay): 60 to 115 nM | IC50 [3]: 94 ± 4 nM | EC50 [4]: 88 ± 10 nM

NS(=O)(=O)NCCNC(=O)c1n[nH]nc1-c1ccc(F)c(F)c1 [Compound 4k]
inhibition at 0.032 µM ([1]; 32 nM): 13% | inhibition at 0.16 µM ([1]; 160 nM): 24% | inhibition at 0.8 µM ([1]; 800 nM): 46% | inhibition at 4 µM ([1]; 4 µM): 58% | inhibition at 20 µM ([1]; 20 µM): 63% | inhibition at 100 µM ([1]; 100 µM): 68% | IC50 [2, 6]: 59 ± 6 nM | inhibition at 0.032 µM ([2]; HPLC, 32 nM): 14% | inhibition at 0.16 µM ([2]; HPLC, 160 nM): 45% | inhibition at 0.8 µM ([2]; HPLC, 800 nM): 69% | inhibition at 4 µM ([2]; HPLC, 4 µM): 77% | inhibition at 20 µM ([2]; HPLC, 20 µM): 86% | inhibition at 100 µM ([2]; HPLC, 100 µM): 84% | IC50 ([2]; kynurenine assay): 60 to 115 nM | interaction with human serum proteins (Trp-fluorescence quenching) [5]: more strongly | inhibition at 4 µM ([3]; 4 μM compound): 71 to 86% | inhibition at 100 µM ([3]; 100 μM compound): 82 to 93% | IC50 [3]: 92 ± 12 nM | fold stronger IDO1 inhibition than MMG-0358 [3]: 3 fold | EC50 [4]: 77 ± 5 nM

NC(=O)c1n[nH]nc1-c1ccc(F)c(F)c1 [Compound 3i]
% Of inhibition for TDO enzyme ([1]; 32 nM): 10% | % Of inhibition for TDO enzyme ([1]; 160 nM): 18% | % Of inhibition for TDO enzyme ([1]; 800 nM): 21% | % Of inhibition for TDO enzyme ([1]; 4 µM): 18% | % Of inhibition for TDO enzyme ([1]; 20 µM): 37% | % Of inhibition for TDO enzyme ([1]; 100 µM): 52% | IC50 [2, 6]: 119 ± 13 nM | % Of inhibition for IDO1 enzyme ([2]; HPLC, 32 nM): 27% | % Of inhibition for IDO1 enzyme ([2]; HPLC, 160 nM): 48% | % Of inhibition for IDO1 enzyme ([2]; HPLC, 800 nM): 69% | % Of inhibition for IDO1 enzyme ([2]; HPLC, 4 µM): 76% | % Of inhibition for IDO1 enzyme ([2]; HPLC, 20 µM): 84% | % Of inhibition for IDO1 enzyme ([2]; HPLC, 100 µM): 83% | interaction with human serum proteins (Trp-fluorescence quenching) [5]: more strongly | IC50 [3]: 111 ± 5 nM | fold stronger IDO1 inhibition than MMG-0358 [3]: 3 fold | EC50 [4]: 74 ± 17 nM

CCOC(=O)c1n[nH]nc1-c1ccc(F)c(F)c1 [Compound 2i]
% Of inhibition for TDO enzyme ([1]; 32 nM): 34% | % Of inhibition for TDO enzyme ([1]; 160 nM): 47% | % Of inhibition for TDO enzyme ([1]; 800 nM): 49% | % Of inhibition for TDO enzyme ([1]; 4 µM): 65% | % Of inhibition for TDO enzyme ([1]; 20 µM): 63% | % Of inhibition for TDO enzyme ([1]; 100 µM): 83% | IC50 [2, 6]: 396 ± 10 nM | % Of inhibition for IDO1 enzyme ([2]; HPLC, 32 nM): 21% | % Of inhibition for IDO1 enzyme ([2]; HPLC, 160 nM): 29% | % Of inhibition for IDO1 enzyme ([2]; HPLC, 800 nM): 59% | % Of inhibition for IDO1 enzyme ([2]; HPLC, 4 µM): 60% | % Of inhibition for IDO1 enzyme ([2]; HPLC, 20 µM): 78% | % Of inhibition for IDO1 enzyme ([2]; HPLC, 100 µM): 80% | interaction with human serum proteins (Trp-fluorescence quenching) [5]: more strongly | IC50 [3]: 545 ± 29 nM | EC50 [4]: 162 ± 15 nM
